{"source": "PubChem BioAssay (NCI)", "assay_in_all_cases": "NCI tumour cell line growth inhibition, 48 h", "key": {"[1]": {"system": "786-0 renal"}, "[2]": {"system": "A498 renal"}, "[3]": {"system": "A549 NSCLC"}, "[4]": {"system": "ACHN renal"}, "[5]": {"system": "BT-549 breast"}, "[6]": {"system": "CAKI-1 renal"}, "[7]": {"system": "COLO 205 colon"}, "[8]": {"system": "DU-145 prostate"}, "[9]": {"system": "EKVX NSCLC"}, "[10]": {"system": "HCC-2998 colon"}, "[11]": {"system": "HCT-116 colon"}, "[12]": {"system": "HCT-15 colon"}, "[13]": {"system": "HL-60(TB) leukemia"}, "[14]": {"system": "HOP-62 NSCLC"}, "[15]": {"system": "HOP-92 NSCLC"}, "[16]": {"system": "HS 578T breast"}, "[17]": {"system": "IGROV1 ovarian"}, "[18]": {"system": "K-562 leukemia"}, "[19]": {"system": "KM12 colon"}, "[20]": {"system": "LOX IMVI melanoma"}, "[21]": {"system": "M14 melanoma"}, "[22]": {"system": "MALME-3M melanoma"}, "[23]": {"system": "MCF7 breast"}, "[24]": {"system": "MDA-MB-231 breast"}, "[25]": {"system": "MDA-MB-435"}, "[26]": {"system": "NCI-H226 lung"}, "[27]": {"system": "NCI-H23 lung"}, "[28]": {"system": "NCI-H460 lung"}, "[29]": {"system": "NCI-H522 lung"}, "[30]": {"system": "NCI/ADR-RES ovarian"}, "[31]": {"system": "OVCAR-3 ovarian"}, "[32]": {"system": "OVCAR-4 ovarian"}, "[33]": {"system": "OVCAR-5 ovarian"}, "[34]": {"system": "PC-3 prostate"}, "[35]": {"system": "RXF 393 renal"}, "[36]": {"system": "SF-268 CNS"}, "[37]": {"system": "SF-295 CNS"}, "[38]": {"system": "SF-539 CNS"}, "[39]": {"system": "SK-MEL-2 melanoma"}, "[40]": {"system": "SK-MEL-28 melanoma"}, "[41]": {"system": "SK-MEL-5 melanoma"}, "[42]": {"system": "SK-OV-3 ovarian"}, "[43]": {"system": "SN12C renal"}, "[44]": {"system": "SNB-19 CNS"}, "[45]": {"system": "SNB-75 CNS"}, "[46]": {"system": "SR leukemia"}, "[47]": {"system": "SW-620 colon"}, "[48]": {"system": "T-47D breast"}, "[49]": {"system": "TK-10 renal"}, "[50]": {"system": "U251 CNS"}, "[51]": {"system": "UACC-257 melanoma"}, "[52]": {"system": "UACC-62 melanoma"}, "[53]": {"system": "UO-31 renal"}}, "note": "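Each compound was tested at five concentrations against cells in 96-well plates for 48 hours. Abbreviation: GI50, concentration required for 50% inhibition of growth. TGI: total growth inhibition.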"}
{"smiles": "CN1CCN(CCCOc2cccc3nc(Nc4ccc(Cl)c(C(F)(F)F)c4)ccc23)CC1", "values": [{"measurement": "GI50", "setting": "[1]", "value": 1500, "unit": "nM"}, {"measurement": "TGI", "setting": "[1]", "value": 2890, "unit": "nM"}, {"measurement": "GI50", "setting": "[2]", "value": 1680, "unit": "nM"}, {"measurement": "TGI", "setting": "[2]", "value": 3540, "unit": "nM"}, {"measurement": "GI50", "setting": "[3]", "value": 1720, "unit": "nM"}, {"measurement": "TGI", "setting": "[3]", "value": 3660, "unit": "nM"}, {"measurement": "GI50", "setting": "[4]", "value": 1590, "unit": "nM"}, {"measurement": "TGI", "setting": "[4]", "value": 3070, "unit": "nM"}, {"measurement": "GI50", "setting": "[5]", "value": 1710, "unit": "nM"}, {"measurement": "TGI", "setting": "[5]", "value": 3310, "unit": "nM"}, {"measurement": "GI50", "setting": "[6]", "value": 1670, "unit": "nM"}, {"measurement": "TGI", "setting": "[6]", "value": 3190, "unit": "nM"}, {"measurement": "GI50", "setting": "[7]", "value": 1720, "unit": "nM"}, {"measurement": "TGI", "setting": "[7]", "value": 3350, "unit": "nM"}, {"measurement": "GI50", "setting": "[8]", "value": 1810, "unit": "nM"}, {"measurement": "TGI", "setting": "[8]", "value": 3270, "unit": "nM"}, {"measurement": "GI50", "setting": "[9]", "value": 1820, "unit": "nM"}, {"measurement": "TGI", "setting": "[9]", "value": 3980, "unit": "nM"}, {"measurement": "GI50", "setting": "[10]", "value": 1910, "unit": "nM"}, {"measurement": "TGI", "setting": "[10]", "value": 3440, "unit": "nM"}, {"measurement": "GI50", "setting": "[11]", "value": 1500, "unit": "nM"}, {"measurement": "TGI", "setting": "[11]", "value": 2840, "unit": "nM"}, {"measurement": "GI50", "setting": "[12]", "value": 1220, "unit": "nM"}, {"measurement": "TGI", "setting": "[12]", "value": 2640, "unit": "nM"}, {"measurement": "GI50", "setting": "[13]", "value": 1870, "unit": "nM"}, {"measurement": "TGI", "setting": "[13]", "value": 4030, "unit": "nM"}, {"measurement": "GI50", "setting": "[14]", "value": 1700, "unit": "nM"}, {"measurement": "TGI", "setting": "[14]", "value": 3320, "unit": "nM"}, {"measurement": "GI50", "setting": "[15]", "value": 1020, "unit": "nM"}, {"measurement": "TGI", "setting": "[15]", "value": 3690, "unit": "nM"}, {"measurement": "GI50", "setting": "[16]", "value": 2000, "unit": "nM"}, {"measurement": "TGI", "setting": "[16]", "value": 4660, "unit": "nM"}, {"measurement": "GI50", "setting": "[17]", "value": 1850, "unit": "nM"}, {"measurement": "TGI", "setting": "[17]", "value": 3600, "unit": "nM"}, {"measurement": "GI50", "setting": "[18]", "value": 1620, "unit": "nM"}, {"measurement": "TGI", "setting": "[18]", "value": 3340, "unit": "nM"}, {"measurement": "GI50", "setting": "[19]", "value": 1740, "unit": "nM"}, {"measurement": "TGI", "setting": "[19]", "value": 3240, "unit": "nM"}, {"measurement": "GI50", "setting": "[20]", "value": 1560, "unit": "nM"}, {"measurement": "TGI", "setting": "[20]", "value": 3070, "unit": "nM"}, {"measurement": "GI50", "setting": "[21]", "value": 1810, "unit": "nM"}, {"measurement": "TGI", "setting": "[21]", "value": 3480, "unit": "nM"}, {"measurement": "GI50", "setting": "[22]", "value": 1750, "unit": "nM"}, {"measurement": "TGI", "setting": "[22]", "value": 3450, "unit": "nM"}, {"measurement": "GI50", "setting": "[23]", "value": 1410, "unit": "nM"}, {"measurement": "TGI", "setting": "[23]", "value": 2990, "unit": "nM"}, {"measurement": "GI50", "setting": "[24]", "value": 1470, "unit": "nM"}, {"measurement": "TGI", "setting": "[24]", "value": 3100, "unit": "nM"}, {"measurement": "GI50", "setting": "[25]", "value": 1680, "unit": "nM"}, {"measurement": "TGI", "setting": "[25]", "value": 3230, "unit": "nM"}, {"measurement": "GI50", "setting": "[26]", "value": 2070, "unit": "nM"}, {"measurement": "TGI", "setting": "[26]", "value": 4890, "unit": "nM"}, {"measurement": "GI50", "setting": "[27]", "value": 1780, "unit": "nM"}, {"measurement": "TGI", "setting": "[27]", "value": 3420, "unit": "nM"}, {"measurement": "GI50", "setting": "[28]", "value": 1720, "unit": "nM"}, {"measurement": "TGI", "setting": "[28]", "value": 3520, "unit": "nM"}, {"measurement": "GI50", "setting": "[29]", "value": 1830, "unit": "nM"}, {"measurement": "TGI", "setting": "[29]", "value": 3640, "unit": "nM"}, {"measurement": "GI50", "setting": "[30]", "value": 1730, "unit": "nM"}, {"measurement": "TGI", "setting": "[30]", "value": 3370, "unit": "nM"}, {"measurement": "GI50", "setting": "[31]", "value": 1810, "unit": "nM"}, {"measurement": "TGI", "setting": "[31]", "value": 3310, "unit": "nM"}, {"measurement": "GI50", "setting": "[32]", "value": 2730, "unit": "nM"}, {"measurement": "TGI", "setting": "[32]", "value": 7450, "unit": "nM"}, {"measurement": "GI50", "setting": "[33]", "value": 1850, "unit": "nM"}, {"measurement": "TGI", "setting": "[33]", "value": 3410, "unit": "nM"}, {"measurement": "GI50", "setting": "[34]", "value": 1570, "unit": "nM"}, {"measurement": "TGI", "setting": "[34]", "value": 3030, "unit": "nM"}, {"measurement": "GI50", "setting": "[35]", "value": 1630, "unit": "nM"}, {"measurement": "TGI", "setting": "[35]", "value": 3440, "unit": "nM"}, {"measurement": "GI50", "setting": "[36]", "value": 1850, "unit": "nM"}, {"measurement": "TGI", "setting": "[36]", "value": 3660, "unit": "nM"}, {"measurement": "GI50", "setting": "[37]", "value": 1800, "unit": "nM"}, {"measurement": "TGI", "setting": "[37]", "value": 3380, "unit": "nM"}, {"measurement": "GI50", "setting": "[38]", "value": 1580, "unit": "nM"}, {"measurement": "TGI", "setting": "[38]", "value": 3020, "unit": "nM"}, {"measurement": "GI50", "setting": "[39]", "value": 2060, "unit": "nM"}, {"measurement": "TGI", "setting": "[39]", "value": 4490, "unit": "nM"}, {"measurement": "GI50", "setting": "[40]", "value": 1390, "unit": "nM"}, {"measurement": "TGI", "setting": "[40]", "value": 2810, "unit": "nM"}, {"measurement": "GI50", "setting": "[41]", "value": 1690, "unit": "nM"}, {"measurement": "TGI", "setting": "[41]", "value": 3130, "unit": "nM"}, {"measurement": "GI50", "setting": "[42]", "value": 1990, "unit": "nM"}, {"measurement": "TGI", "setting": "[42]", "value": 4350, "unit": "nM"}, {"measurement": "GI50", "setting": "[43]", "value": 1600, "unit": "nM"}, {"measurement": "TGI", "setting": "[43]", "value": 3380, "unit": "nM"}, {"measurement": "GI50", "setting": "[44]", "value": 1640, "unit": "nM"}, {"measurement": "TGI", "setting": "[44]", "value": 3140, "unit": "nM"}, {"measurement": "GI50", "setting": "[45]", "value": 1520, "unit": "nM"}, {"measurement": "TGI", "setting": "[45]", "value": 3780, "unit": "nM"}, {"measurement": "GI50", "setting": "[46]", "value": 540, "unit": "nM"}, {"measurement": "TGI", "setting": "[46]", "value": 3400, "unit": "nM"}, {"measurement": "GI50", "setting": "[47]", "value": 1890, "unit": "nM"}, {"measurement": "TGI", "setting": "[47]", "value": 3830, "unit": "nM"}, {"measurement": "GI50", "setting": "[48]", "value": 1970, "unit": "nM"}, {"measurement": "TGI", "setting": "[48]", "value": 4520, "unit": "nM"}, {"measurement": "GI50", "setting": "[49]", "value": 1800, "unit": "nM"}, {"measurement": "TGI", "setting": "[49]", "value": 3440, "unit": "nM"}, {"measurement": "GI50", "setting": "[50]", "value": 1490, "unit": "nM"}, {"measurement": "TGI", "setting": "[50]", "value": 3230, "unit": "nM"}, {"measurement": "GI50", "setting": "[51]", "value": 1720, "unit": "nM"}, {"measurement": "TGI", "setting": "[51]", "value": 3500, "unit": "nM"}, {"measurement": "GI50", "setting": "[52]", "value": 1720, "unit": "nM"}, {"measurement": "TGI", "setting": "[52]", "value": 3270, "unit": "nM"}, {"measurement": "GI50", "setting": "[53]", "value": 1460, "unit": "nM"}, {"measurement": "TGI", "setting": "[53]", "value": 2880, "unit": "nM"}]}
